The results in this text go back to article PMC10688702, “The indole motif is essential for the antitrypanosomal activity of N^5-substituted paullones” (PLOS ONE, 2023).

The test system of the assay is trypanothione synthetase of T. b. brucei (TbTryS). In words: TryS activity screening assay on recombinant TbTryS. It counts as biochemical. Particulars: % activity at 30 μM compound, errors 2 SD. How it is done:
TryS from different trypanosomatids was produced in recombinant form with an N-terminal His-tag. The constructs pET-15b TbTryS and pET-28c(+)LiTryS were used to express TryS of T. b. brucei 427 (MITat1.4, GenBank accession protein id CAC87573.1), and L. infantum JPCM5 (GenBank accession protein id CAM69145.1). E. coli strain BL21 (DE3) served as the expression host. For TbTryS, the cells were cultured in a medium based in Terrific Broth and induction with isopropyl 1-thio-β-D-galactopyranoside (IPTG), while for LiTryS, the cells were cultured in ZYM-5052 auto-induction medium. For a detailed description of the expression, see Benítez et al.. The purification was performed by immobilised metal affinity chromatography in a HisTrap Fast Flow column (GE Healthcare) followed by size exclusion chromatography. […] The fractions containing recombinant TryS with ≥95% purity were pooled and concentrated to >10 mg protein/mL using a 10 kDa cut-off Amicon filter (Millipore, Billerica, CA). Glycerol was added at a final concentration of 40% (v/v). The samples were stored at -80°C. Enzyme purity and activity were assessed by SDS-PAGE (12%) under reducing conditions and by the end-point TryS assay (see TryS activity screening assay), respectively. Protein concentration was determined using the bicinchoninic acid assay with bovine serum albumin as standard. The protocols yielded 25–30 mg TbTryS or LiTryS per litre of culture medium and homogeneous specific activity.
For all TryS, ATP was used at 150 μM because of a high background signal at higher concentrations and Spd fixed at 2 mM, in agreement with the intracellular levels calculated from data reported in the literature for trypanosomatids. GSH was adjusted to 0.05 and 0.25 mM for TbTryS and LiTryS, respectively, to avoid substrate inhibition or to approach physiological concentrations. […] Microtiter plate wells were loaded with 5 μL of the test compound, DMSO (reaction control) or a TryS specific inhibitor (inhibition control) and 40 μL of MM solution. The reactions were then started by adding 5 μL of TryS (2 and 3*10^−5 μmol*min^-1*mL^-1 for LiTryS and TbTryS, respectively) and stopped after 15 min with 200 μL BIOMOL® GREEN reagent (Enzo Life Sciences). The compounds used as inhibition control were added at concentrations that inhibited 50% TryS activity: 30 μM and 150 nM MOL2008 for TbTryS and LiTryS, respectively. Blanks were prepared for each condition by adding 5 μL of screening reaction buffer instead of the enzyme. The TryS activity is calculated as follows: TrySactivity%=A650nmCi-A650nmCiB/A650nmE-A650nmEB*100%
A650 nm Ci is the mean absorbance at 650 nm for the reaction test with compound I (Ci), A650 nm CiB is the mean absorbance at 650 nm for the blank control with compound I (CiB), A650 nm E is the mean absorbance at 650 nm for the reaction control with DMSO (E) and A650 nm EB is the mean absorbance at 650 nm for the blank control with DMSO (EB). The errors were expressed as 2 standard deviations (SD), SD estimated as σ^n−1.
`CNCCNC(=O)CN1C(=O)Cc2c([nH]c3ccc(I)cc23)-c2ccc(Cl)cc21` [1f, 2-(3-Chloro-9-iodo-6-oxo-7,12-dihydrobenzo[2,3]azepino[4,5-b]indol-5(6H)-yl)-N-[2-(methylamino)ethyl]acetamide]: the “TbTryS activity [% at 30 μM]” value is 82.9 ± 6.5%.

For `CNCCNC(=O)CN1C(=O)Cc2c([nH]c3ccc(Cl)cc23)-c2ccc(Cl)cc21` [1g, 2-(3,9-Dichloro-6-oxo-7,12-dihydrobenzo[2,3]azepino[4,5-b]indol-5(6H)-yl)-N-[2-(methylamino)ethyl]acetamide], the “TbTryS activity [% at 30 μM]” value was 82.8 ± 5.9%.

As to `CNCCNC(=O)CN1C(=O)Cc2c([nH]c3ccc(C(F)(F)F)cc23)-c2ccc(Cl)cc21` [1h, 2-(3-Chloro-6-oxo-9-trifluoromethyl-7,12-dihydrobenzo[2,3]azepino[4,5-b]indol-5(6H)-yl)-N-[2-(methylamino)ethyl]acetamide], the “TbTryS activity [% at 30 μM]” value is on record as 87.8 ± 4.6%.
